Measurements reported in ChEMBL document CHEMBL5150007, “Zinc enzymes in medicinal chemistry” (Eur J Med Chem, 2021).
Starred links: 1 amine or outer side, 2 acyl side, 3 side chain; linkers in the order of their positions; H or OH if unused. Residues, ends and D or L forms follow the SMILES beside them. *: point of attachment. CO = O=C([*:1])[*:2]; N(Me)OMe = CON(C)*

Columns and labels:
Lethal factor [1] = target: T1, Lethal factor (Bacillus anthracis, UniProt P15917); assay: Binding affinity to Bacillus anthracis lethal factor assessed as inhibition constant
T1 sequence (P15917 whole entry): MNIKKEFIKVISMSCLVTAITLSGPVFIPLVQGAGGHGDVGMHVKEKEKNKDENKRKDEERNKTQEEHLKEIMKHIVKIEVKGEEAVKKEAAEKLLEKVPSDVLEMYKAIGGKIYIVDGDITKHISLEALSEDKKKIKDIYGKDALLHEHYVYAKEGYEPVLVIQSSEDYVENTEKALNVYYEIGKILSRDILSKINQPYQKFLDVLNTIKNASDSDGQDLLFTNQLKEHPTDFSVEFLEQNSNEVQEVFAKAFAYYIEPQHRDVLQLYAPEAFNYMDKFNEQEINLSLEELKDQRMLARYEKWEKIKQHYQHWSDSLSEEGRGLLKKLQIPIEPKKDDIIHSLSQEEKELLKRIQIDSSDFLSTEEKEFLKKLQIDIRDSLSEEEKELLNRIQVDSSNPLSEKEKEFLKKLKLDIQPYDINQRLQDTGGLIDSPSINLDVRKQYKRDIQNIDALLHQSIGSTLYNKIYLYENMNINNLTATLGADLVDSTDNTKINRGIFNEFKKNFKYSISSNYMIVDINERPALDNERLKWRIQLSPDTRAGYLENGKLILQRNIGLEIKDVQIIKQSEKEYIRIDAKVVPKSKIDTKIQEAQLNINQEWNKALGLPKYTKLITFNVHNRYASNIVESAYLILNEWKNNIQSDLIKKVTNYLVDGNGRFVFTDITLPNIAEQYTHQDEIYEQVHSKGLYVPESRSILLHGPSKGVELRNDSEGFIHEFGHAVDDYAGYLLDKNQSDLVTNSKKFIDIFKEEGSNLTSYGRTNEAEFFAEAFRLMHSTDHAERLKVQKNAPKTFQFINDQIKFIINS

Adenosine deaminase = target: T2, Adenosine deaminase (Homo sapiens, UniProt P00813); assay: Binding affinity to ADA (unknown origin) assessed as inhibition constant
T2 sequence (P00813 whole entry): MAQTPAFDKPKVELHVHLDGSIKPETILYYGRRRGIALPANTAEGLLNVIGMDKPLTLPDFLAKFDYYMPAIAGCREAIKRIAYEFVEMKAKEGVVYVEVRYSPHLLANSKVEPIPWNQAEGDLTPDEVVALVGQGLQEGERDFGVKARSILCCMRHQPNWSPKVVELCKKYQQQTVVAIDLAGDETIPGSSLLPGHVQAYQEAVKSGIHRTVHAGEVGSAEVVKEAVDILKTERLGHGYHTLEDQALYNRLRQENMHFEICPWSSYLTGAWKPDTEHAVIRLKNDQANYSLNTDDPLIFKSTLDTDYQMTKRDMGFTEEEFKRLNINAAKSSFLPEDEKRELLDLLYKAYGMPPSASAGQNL

[2] = Inhibition of VIM-2 (unknown origin); parameters: species or system Homo sapiens
[3] = Inhibition of NDM-1 (unknown origin); parameters: species or system Homo sapiens
Lethal factor [4] = target: T1, Lethal factor; assay: Inhibition of Bacillus anthracis lethal factor
[5] = target: Disintegrin and metalloproteinase domain-containing protein 17 (Homo sapiens, UniProt P78536); assay: Inhibition of human ADAM17
Sequence of Disintegrin and metalloproteinase domain-containing protein 17 (P78536 whole entry, the tested form may be a part): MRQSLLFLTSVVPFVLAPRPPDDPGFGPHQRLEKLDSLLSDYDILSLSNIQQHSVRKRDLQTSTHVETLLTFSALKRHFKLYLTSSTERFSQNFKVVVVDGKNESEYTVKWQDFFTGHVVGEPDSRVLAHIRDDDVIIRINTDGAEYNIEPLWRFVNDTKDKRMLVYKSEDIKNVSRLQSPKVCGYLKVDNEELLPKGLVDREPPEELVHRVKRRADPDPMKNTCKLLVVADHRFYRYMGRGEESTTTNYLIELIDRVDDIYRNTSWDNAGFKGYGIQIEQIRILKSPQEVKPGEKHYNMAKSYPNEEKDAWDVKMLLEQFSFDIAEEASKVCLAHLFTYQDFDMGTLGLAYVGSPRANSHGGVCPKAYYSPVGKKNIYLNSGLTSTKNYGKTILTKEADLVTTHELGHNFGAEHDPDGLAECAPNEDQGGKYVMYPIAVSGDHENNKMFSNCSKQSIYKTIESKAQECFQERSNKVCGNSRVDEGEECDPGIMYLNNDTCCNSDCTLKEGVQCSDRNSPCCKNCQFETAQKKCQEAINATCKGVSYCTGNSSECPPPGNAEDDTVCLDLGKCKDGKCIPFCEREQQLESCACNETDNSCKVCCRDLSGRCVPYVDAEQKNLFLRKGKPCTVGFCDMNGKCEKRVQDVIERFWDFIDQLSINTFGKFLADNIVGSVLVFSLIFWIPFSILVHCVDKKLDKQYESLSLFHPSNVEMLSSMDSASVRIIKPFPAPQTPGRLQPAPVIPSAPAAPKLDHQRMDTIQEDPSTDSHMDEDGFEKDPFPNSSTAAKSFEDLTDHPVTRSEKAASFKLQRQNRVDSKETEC

[6] = target: T3, Disintegrin and metalloproteinase domain-containing protein 10 (Homo sapiens, UniProt O14672); assay: Inhibition of human ADAM10 using (biotin-SPLAQAVRSSSRTP(3H)S-NH2) as a substrate by streptavidin-coated scintillation proximity assay
T3 sequence (O14672 whole entry): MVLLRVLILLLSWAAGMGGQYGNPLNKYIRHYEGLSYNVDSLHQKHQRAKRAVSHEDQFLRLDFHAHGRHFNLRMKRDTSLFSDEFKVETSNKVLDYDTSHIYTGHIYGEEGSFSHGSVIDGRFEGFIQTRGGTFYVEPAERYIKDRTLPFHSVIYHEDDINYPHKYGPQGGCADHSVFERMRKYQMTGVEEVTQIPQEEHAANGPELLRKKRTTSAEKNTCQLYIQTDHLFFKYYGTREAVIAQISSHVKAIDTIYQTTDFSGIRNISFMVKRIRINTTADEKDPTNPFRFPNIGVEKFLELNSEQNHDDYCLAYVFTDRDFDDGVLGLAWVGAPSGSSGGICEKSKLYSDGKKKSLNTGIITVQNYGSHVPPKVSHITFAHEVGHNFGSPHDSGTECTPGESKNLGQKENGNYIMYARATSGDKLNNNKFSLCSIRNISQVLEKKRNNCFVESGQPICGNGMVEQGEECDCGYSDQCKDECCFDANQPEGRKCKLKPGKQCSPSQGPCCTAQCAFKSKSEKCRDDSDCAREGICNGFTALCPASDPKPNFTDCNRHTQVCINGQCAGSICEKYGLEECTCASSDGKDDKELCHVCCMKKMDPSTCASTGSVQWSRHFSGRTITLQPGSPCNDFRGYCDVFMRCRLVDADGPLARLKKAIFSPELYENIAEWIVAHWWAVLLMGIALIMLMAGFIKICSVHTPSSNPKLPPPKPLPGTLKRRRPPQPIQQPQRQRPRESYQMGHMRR

[7] = Inhibition of NDM-1 (unknown origin) using imipenem as substrate by spectrophotometric assay; parameters: species or system Homo sapiens
[8] = Inhibition of farnesyltransferase (unknown origin); parameters: species or system Homo sapiens

SMILES: CCN(CCCC[C@@H](C[C@@H](OC)c1ccc(F)cc1)C(=O)NO)c1ccc(F)cc1
- Ki (Lethal factor [1]): 0.27 nM

SMILES: CCCCCC[C@H]([C@H](C)O)n1cnc2c(N)ncnc21 [(+)-EHNA]
- Ki (Adenosine deaminase): 1 nM

SMILES: O=C(O)c1nccn1Cc1ccccc1
- IC50 [2]: 0.45 nM
- IC50 [3]: 66700 nM

SMILES: CON(C)C(=O)N[C@@H](CCCNC(=N)N)C(=O)N[C@@H](CC(C)C)C(=O)N[C@H](C(=O)N[C@@H](CCCNC(=N)N)C(=O)O)C(C)C ({N(Me)OMe-CO}-RLVR-OH)
- Ki (Lethal factor [1]): 6.4 nM

SMILES: O=C(O[C@@H]1Cc2c(O)cc(O)cc2O[C@@H]1c1cc(O)c(O)c(O)c1)c1cc(O)c(O)c(O)c1 [EPIGALOCATECHIN GALLATE]
- IC50 (Lethal factor [4]): 97 nM

SMILES: CNC(=O)[C@@H](NC(=O)C(CCCc1ccccc1)[C@H](C)N(O)C=O)C(C)(C)C (some centres not stated)
- IC50 [5]: 541 nM
- IC50 [6]: 5.3 nM

SMILES: N[C@@H](CN[C@@H](CN[C@@H](CC(=O)O)C(=O)O)C(=O)O)C(=O)O
- IC50 [3]: 7000 nM

SMILES: C[C@@H](CS)C(=O)N1CCC[C@H]1C(=O)O
- IC50 [7]: 7.9 nM

SMILES: NC[C@@H]1O[C@H](O[C@H]2[C@@H](O)[C@H](O[C@@H]3[C@@H](O)[C@H](N)C[C@H](N)[C@H]3O[C@H]3O[C@H](CN)[C@@H](O)[C@H](O)[C@H]3N)O[C@@H]2CO)[C@H](N)[C@@H](O)[C@@H]1O [FRAMYCETIN]
- Ki (Lethal factor [1]): 7 nM

SMILES: CCC(C)[C@@H](CO[C@@H](Cc1ccccc1)C(=O)N[C@@H](CCS(C)(=O)=O)C(=O)O)NC[C@@H](N)CS (some centres not stated)
- IC50 [8]: 240 nM
